The values that follow are results of earlier work, collected in patent US20070202158A1, “Methods Of Administering Water-Soluble Prodrugs Of Propofol For Extended Sedation” (MGI GP, Inc., priority 2003, published 2007).

The series concerns patients. The conditions noted are these: anesthetic induction doses; cited from earlier work.

Consider `CC(C)c1cccc(C(C)C)c1O` [propofol, 2,6-diisopropylphenol], for which the “patients with respiratory consequences, including reduction in tidal volume and apnea” value was “up to 83%”.
